Results as given in ChEMBL document CHEMBL3045042, “The discovery of SYP-10913 and SYP-11277: novel strobilurin acaricides” (Pest Manag Sci, 2011).
≈ marks a conversion by molar mass, not a printed value.

Assays:
Tetranychus cinnabarinus [1] = assay: Acaricidal activity against Tetranychus cinnabarinus (carmine spider mite) in kidney bean leaf assessed as mortality at 10 mg/L measured after 72 hr of spray; format: functional
Tetranychus cinnabarinus [2] = assay: Acaricidal activity against Tetranychus cinnabarinus (carmine spider mite) in kidney bean leaf assessed as mortality at 40 mg/L measured after 72 hr of spray; format: functional
Salmonella typhimurium = assay: Genotoxicity in Salmonella enterica subsp. enterica serovar Typhimurium by Ames test; format: toxicity, organism-based
Oryctolagus cuniculus [3] = species: Oryctolagus cuniculus; assay: Toxicity in Oryctolagus cuniculus (rabbit) assessed as eye irritation; format: organism-based; settings: in vivo
Oryctolagus cuniculus [4] = species: Oryctolagus cuniculus; assay: Toxicity in Oryctolagus cuniculus (rabbit) assessed as skin irritation; format: organism-based; settings: in vivo
[5] = Acute percutaneous toxicity in Mus musculus (mouse); format: organism-based; settings: in vivo, topical or ocular
[6] = Acute oral toxicity in Mus musculus (mouse); format: organism-based; settings: in vivo
Tetranychus cinnabarinus [7] = assay: Acaricidal activity against eggs of Tetranychus cinnabarinus (carmine spider mite) in kidney bean leaf assessed as unhatched eggs measured after 120 hr; format: functional
Tetranychus cinnabarinus [8] = assay: Acaricidal activity against nymphs of Tetranychus cinnabarinus (carmine spider mite) in kidney bean leaf assessed as mortality measured after 120 hr; format: functional
Tetranychus cinnabarinus [9] = assay: Acaricidal activity against Tetranychus cinnabarinus (carmine spider mite) in kidney bean leaf assessed as mortality at 1.25 mg/L measured after 72 hr of spray; format: functional
Tetranychus cinnabarinus [10] = assay: Acaricidal activity against Tetranychus cinnabarinus (carmine spider mite) in kidney bean leaf assessed as mortality at 2.5 mg/L measured after 72 hr of spray; format: functional
Tetranychus cinnabarinus [11] = assay: Acaricidal activity against Tetranychus cinnabarinus (carmine spider mite) in kidney bean leaf assessed as mortality at 5 mg/L measured after 72 hr of spray; format: functional

| Compound | mortality at 10 µg/mL (Tetranychus cinnabarinus [1]) [%] | mortality at 40 µg/mL (Tetranychus cinnabarinus [2]) [%] | also measured |
| --- | --- | --- | --- |
| CO/C=C(/C(=O)OC)c1ccccc1COc1cc(C(F)(F)F)nc(Nc2cc(Cl)ccc2Cl)n1 | 20 | 100 | – |
| CO/C=C(/C(=O)OC)c1ccccc1COc1cc(C(F)(F)F)nc(Nc2cccc(Cl)c2Cl)n1 | 100 | 100 | Activity (Salmonella typhimurium): Non-toxic; Activity (Oryctolagus cuniculus [3]): Toxic; Activity (Oryctolagus cuniculus [4]): Non-toxic; LD50 [5]: ≥ 2150 mg/kg; LD50 [6]: ≥ 4640 mg/kg; LC50 (Tetranychus cinnabarinus [7]): 4.75 µg/mL (≈ 8.99 µM); LC50 (Tetranychus cinnabarinus [8]): 0.34 µg/mL (≈ 0.644 µM); mortality at 1.25 µg/mL (Tetranychus cinnabarinus [9]): 75%; mortality at 2.5 µg/mL (Tetranychus cinnabarinus [10]): 95%; mortality at 5 µg/mL (Tetranychus cinnabarinus [11]): 99% |
| CO/C=C(/C(=O)OC)c1ccccc1COc1cc(C(F)(F)F)nc(Nc2ccc(C)cc2C)n1 | 76 | 100 | – |
| CO/C=C(/C(=O)OC)c1ccccc1COc1cc(C(F)(F)F)nc(Nc2ccc(Cl)cc2)n1 | 0 | 0 | – |
| CO/C=C(/C(=O)OC)c1ccccc1COc1cc(C(F)(F)F)nc(OC(C)C)n1 [FLUACRYPYRIM] | 95 | 100 | LC50 (Tetranychus cinnabarinus [7]): 5.95 µg/mL (≈ 14 µM); LC50 (Tetranychus cinnabarinus [8]): 0.64 µg/mL (≈ 1.5 µM); mortality at 1.25 µg/mL (Tetranychus cinnabarinus [9]): 30%; mortality at 2.5 µg/mL (Tetranychus cinnabarinus [10]): 65%; mortality at 5 µg/mL (Tetranychus cinnabarinus [11]): 94% |
| CO/C=C(/C(=O)OC)c1ccccc1COc1cc(C(F)(F)F)nc(Nc2cccc(Cl)c2C)n1 | 0 | 0 | – |
| CO/C=C(/C(=O)OC)c1ccccc1COc1cc(C(F)(F)F)nc(Nc2cc(Cl)c(Cl)cc2Cl)n1 | 0 | 0 | – |
| CO/C=C(/C(=O)OC)c1ccccc1COc1cc(C(F)(F)F)nc(Nc2ccc(Cl)cc2Cl)n1 [SYP-11277] | 100 | 100 | LC50 (Tetranychus cinnabarinus [7]): 3.63 µg/mL (≈ 6.87 µM); LC50 (Tetranychus cinnabarinus [8]): 0.37 µg/mL (≈ 0.7 µM); mortality at 1.25 µg/mL (Tetranychus cinnabarinus [9]): 90%; mortality at 2.5 µg/mL (Tetranychus cinnabarinus [10]): 98%; mortality at 5 µg/mL (Tetranychus cinnabarinus [11]): 100% |
| CO/C=C(/C(=O)OC)c1ccccc1COc1cc(C(F)(F)F)nc(Nc2cc(Cl)cc(Cl)c2)n1 | 0 | 0 | – |
| CO/C=C(/C(=O)OC)c1ccccc1COc1cc(C(F)(F)F)nc(Nc2ccc(C(F)(F)F)cc2)n1 | 0 | 0 | – |
| CO/C=C(/C(=O)OC)c1ccccc1COc1cc(C(F)(F)F)nc(Nc2ccc(C)cc2)n1 | 0 | 0 | – |
| CO/C=C(/C(=O)OC)c1ccccc1COc1cc(C(F)(F)F)nc(Nc2ccc(Cl)c(Cl)c2)n1 | 0 | 73 | – |
| CO/C=C(/C(=O)OC)c1ccccc1COc1cc(C(F)(F)F)nc(Nc2ccc(C)c(C)c2)n1 | 20 | 97 | – |
| CO/C=C(/C(=O)OC)c1ccccc1COc1cc(C(F)(F)F)nc(Nc2cccc(C)c2)n1 | 20 | 90 | – |
| CO/C=C(/C(=O)OC)c1ccccc1COc1cc(C(F)(F)F)nc(Nc2c(Cl)cccc2Cl)n1 | 0 | 0 | – |
| CO/C=C(/C(=O)OC)c1ccccc1COc1cc(C(F)(F)F)nc(Nc2cc(C)ccc2C)n1 | 0 | 0 | – |
| CO/C=C(/C(=O)OC)c1ccccc1COc1cc(C(F)(F)F)nc(Nc2ccc(Cl)cc2C)n1 | 0 | 0 | – |
| CO/C=C(/C(=O)OC)c1ccccc1COc1cc(C(F)(F)F)nc(Nc2ccccc2C)n1 | 0 | 100 | – |
| CO/C=C(/C(=O)OC)c1ccccc1COc1cc(C(F)(F)F)nc(Nc2ccc(Cl)c(Cl)c2Cl)n1 | 100 | 100 | mortality at 1.25 µg/mL (Tetranychus cinnabarinus [9]): 75%; mortality at 2.5 µg/mL (Tetranychus cinnabarinus [10]): 98%; mortality at 5 µg/mL (Tetranychus cinnabarinus [11]): 100% |
| CO/C=C(/C(=O)OC)c1ccccc1COc1cc(C(F)(F)F)nc(Nc2ccc(Cl)c(C)c2Cl)n1 | 100 | 100 | mortality at 1.25 µg/mL (Tetranychus cinnabarinus [9]): 79%; mortality at 2.5 µg/mL (Tetranychus cinnabarinus [10]): 92%; mortality at 5 µg/mL (Tetranychus cinnabarinus [11]): 100% |
| CO/C=C(/C(=O)OC)c1ccccc1COc1cc(C(F)(F)F)nc(Nc2ccc(OC)cc2)n1 | 0 | 0 | – |
